Patent US8268781B2
Where two headings read alike, the source gives them in different places.

Assay: Ex vivo bio-distribution studies
Settings: In-111 labeled, 555 kBq tail vein, mean of 4 mice; for tissue uptake at 1 h / tissue uptake at 4 h / tissue uptake at 24 h: mouse, iv, total radioactivity; for tissue uptake at 1 h: 1 h p.i.
Experimental: The in vivo bio-distribution can, for example, be shown in rodents such as hairless mice. For this purpose […] CHO cells are injected into hairless mice. After approx. 3 to 5 weeks tumors approx. 300 mg in size had grown.
1, 4 und 24 h p.i. all the mice are killed and their organs removed.
The uptake of radioactivity is measured and the organs are weighed. The % of injected dose program of organ weight is calculated.
Mean value from the bio-distribution with 4 mice pro group in % i.D./g Stadev: standard deviation.

CC[C@H](C)[C@H](NC(=O)[C@H](Cc1ccccc1)NC(=O)[C@H](CCC(=O)O)NC(=O)[C@H](CCCCN)NC(=O)[C@H](C)NC(=O)[C@H](C)NC(=O)[C@H](CCC(N)=O)NC(=O)CNC(=O)[C@H](CCC(=O)O)NC(=O)[C@H](CC(C)C)NC(=O)[C@H](Cc1ccc(O)cc1)NC(=O)[C@H](CO)NC(=O)[C@H](CO)NC(=O)[C@@H](NC(=O)[C@H](CC(=O)O)NC(=O)[C@H](CO)NC(=O)[C@@H](NC(=O)[C@H](Cc1ccccc1)NC(=O)[C@@H](NC(=O)CNC(=O)[C@H](CCC(=O)O)NC(=O)[C@H](C)NC(=O)[C@@H](N)Cc1c[nH]cn1)[C@@H](C)O)[C@@H](C)O)C(C)C)C(=O)N[C@@H](C)C(=O)N[C@@H](Cc1c[nH]c2ccccc12)C(=O)N[C@@H](CC(C)C)C(=O)N[C@H](C(=O)N[C@@H](CCCCN)C(=O)NCC(=O)N[C@@H](CCCNC(=N)N)C(=O)N[C@@H](CCCCNC(=O)CN(CCN(CCN(CC(=O)O)CC(=O)O)CC(=O)O)CC(=O)O)C(N)=O)C(C)C [MC10, (DTPA-Lys^37) GLP1 (7-36) amide]
Uptake in Blood (4 h p.i.): 0.00 % i.D./g
Uptake in Muscle (4 h p.i.): 0.00 % i.D./g
Uptake in Blood (24 h p.i.): 0.00 % i.D./g
Uptake in Heart (24 h p.i.): 0.00 % i.D./g
Uptake in Muscle (24 h p.i.): 0.00 % i.D./g
tissue uptake at 1 h (hairless mice, pancreas, read-out: Uptake in Pancreas): 0.58 %ID/g
tissue uptake at 4 h (hairless mice, pancreas, 4 h p.i., read-out: Uptake in Pancreas): 0.62 %ID/g
tissue uptake at 1 h (hairless mice, spleen, read-out: Uptake in Spleen): 0.02 %ID/g
tissue uptake at 4 h (hairless mice, spleen, 4 h p.i., read-out: Uptake in Spleen): 0.01 %ID/g
tissue uptake at 24 h (hairless mice, spleen, 24 h p.i., read-out: Uptake in Spleen): 0.01 %ID/g
tissue uptake at 1 h (hairless mice, stomach, read-out: Uptake in Stomach): 0.14 %ID/g
tissue uptake at 4 h (hairless mice, stomach, 4 h p.i., read-out: Uptake in Stomach): 0.13 %ID/g
tissue uptake at 24 h (hairless mice, stomach, 24 h p.i., read-out: Uptake in Stomach): 0.07 %ID/g
tissue uptake at 24 h (hairless, GLP-1 receptor negative tumor, 24 h p.i., read-out: Uptake in Tumor− (GLP-1 receptor negative tumor)): 0.01 %ID/g
tissue uptake at 1 h (hairless, GLP-1 receptor positive tumor, read-out: Uptake in Tumor+ (GLP-1 receptor positive tumor)): 0.42 %ID/g
tissue uptake at 4 h (hairless, GLP-1 receptor positive tumor, 4 h p.i., read-out: Uptake in Tumor+ (GLP-1 receptor positive tumor)): 0.31 %ID/g
tissue uptake at 24 h (hairless, GLP-1 receptor positive tumor, 24 h p.i., read-out: Uptake in Tumor+ (GLP-1 receptor positive tumor)): 0.2 %ID/g
tissue uptake at 1 h (hairless, blood, read-out: Uptake in Blood): 0.01 %ID/g
tissue uptake at 1 h (hairless, liver, read-out: Uptake in Liver): 0.03 %ID/g
tissue uptake at 4 h (hairless, liver, 4 h p.i., read-out: Uptake in Liver): 0.01 %ID/g
tissue uptake at 24 h (hairless, liver, 24 h p.i., read-out: Uptake in Liver): 0.01 %ID/g
tissue uptake at 1 h (GLP-1 receptor negative tumor, read-out: Uptake in Tumor− (GLP-1 receptor negative tumor)): 0.03 %ID/g
tissue uptake at 4 h (GLP-1 receptor negative tumor, 4 h p.i., read-out: Uptake in Tumor− (GLP-1 receptor negative tumor)): 0.02 %ID/g
tissue uptake at 1 h (bones, read-out: Uptake in Bones): 0.02 %ID/g
tissue uptake at 4 h (bones, 4 h p.i., read-out: Uptake in Bones): 0.01 %ID/g
tissue uptake at 24 h (bones, 24 h p.i., read-out: Uptake in Bones): 0.01 %ID/g
tissue uptake at 1 h (heart, read-out: Uptake in Heart): 0.02 %ID/g
tissue uptake at 4 h (heart, 4 h p.i., read-out: Uptake in Heart): 0.01 %ID/g
tissue uptake at 1 h (intestine, read-out: Uptake in Intestine): 0.12 %ID/g
tissue uptake at 4 h (intestine, 4 h p.i., read-out: Uptake in Intestine): 0.07 %ID/g
tissue uptake at 24 h (intestine, 24 h p.i., read-out: Uptake in Intestine): 0.04 %ID/g
tissue uptake at 1 h (kidneys, read-out: Uptake in Kidneys): 7.9 %ID/g
tissue uptake at 4 h (kidneys, 4 h p.i., read-out: Uptake in Kidneys): 7.41 %ID/g
tissue uptake at 24 h (kidneys, 24 h p.i., read-out: Uptake in Kidneys): 4.85 %ID/g
tissue uptake at 1 h (lungs, read-out: Uptake in Lungs): 0.8 %ID/g
tissue uptake at 4 h (lungs, 4 h p.i., read-out: Uptake in Lungs): 0.36 %ID/g
tissue uptake at 24 h (lungs, 24 h p.i., read-out: Uptake in Lungs): 0.22 %ID/g
tissue uptake at 1 h (muscle, read-out: Uptake in Muscle): 0.01 %ID/g
tissue uptake at 24 h (pancreas, 24 h p.i., read-out: Uptake in Pancreas): 0.37 %ID/g
